Measurements as given in publication PMC11328603 (Journal of Enzyme Inhibition and Medicinal Chemistry, 2024).

Target: Escherichia coli β-glucuronidase (EcGUS) (Escherichia coli, UniProt P05804)
Experiment: PNPG hydrolysis assay, Lineweaver-Burk kinetics
Type: biochemical

Escherichia coli β-glucuronidase (EcGUS), sequence (P05804 whole entry): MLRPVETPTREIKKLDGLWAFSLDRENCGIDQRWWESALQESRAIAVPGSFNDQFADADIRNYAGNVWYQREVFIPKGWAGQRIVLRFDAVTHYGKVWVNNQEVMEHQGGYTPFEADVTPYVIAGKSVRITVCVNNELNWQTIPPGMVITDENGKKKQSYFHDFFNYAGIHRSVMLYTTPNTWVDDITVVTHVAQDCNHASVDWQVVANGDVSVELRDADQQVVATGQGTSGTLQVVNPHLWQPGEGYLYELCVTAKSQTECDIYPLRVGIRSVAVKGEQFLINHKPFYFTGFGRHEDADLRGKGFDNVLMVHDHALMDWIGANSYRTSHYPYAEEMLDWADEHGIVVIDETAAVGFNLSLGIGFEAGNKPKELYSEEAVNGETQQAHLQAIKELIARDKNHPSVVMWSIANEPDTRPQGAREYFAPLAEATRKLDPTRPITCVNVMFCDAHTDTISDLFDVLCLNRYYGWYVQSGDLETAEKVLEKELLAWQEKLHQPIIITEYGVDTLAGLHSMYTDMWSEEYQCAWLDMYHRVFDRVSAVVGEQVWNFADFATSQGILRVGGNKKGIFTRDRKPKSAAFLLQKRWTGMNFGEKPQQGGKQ

## Clc1ccc2c(c1)C(N1CCNCC1)=Nc1ccccc1O2 [AMX, amoxapine]
  PNPG hydrolysis assay, Lineweaver-Burk kinetics: both AMX and E-9 acted as uncompetitive inhibitors against EcGUS
